Source: publication PMC4929566, “The metabolome of [2-^14C](−)-epicatechin in humans: implications for the assessment of efficacy, safety, and mechanisms of action of polyphenolic bioactives” (Scientific Reports, 2016)

Legend:
Format in all cases: in vivo, humans
[1] = Elimination and mass balance of radioactivity in urine and feces; settings: human
Protocol: (§1) The study was a single-center, open-label, and non-randomized study with two distinct elements: a run-in phase to establish a more defined dietary background of dietary flavanols and procyanidins and the subsequent ^14C-EC ADME study (Fig. 1B). Participants (n = 12) were enrolled in the run-in phase (day –17 to day –4) and asked to supplement their daily diet for 14 days with a commercially available flavanol-containing cocoa-based drink (250 mg cocoa flavanols; 40 mg of EC). This was followed by a 4-day period (day –4 to 0) of a low-flavanol diet. One day (study day -1) prior to the initialization of the ^14C-EC ADME study, all eligible participants were accommodated under controlled conditions at a metabolic research facility (Covance Clinical Pharmacology Inc., Wisconsin) until completion of the study. Based on the compliance of the first part of the study, 8 participants were selected to participate in the ^14C-EC ADME study. During the ^14C-EC ADME study (Fig. 1B.), volunteers received a low-flavanol, standardized high-fiber diet, and were encouraged to maintain an adequate level of hydration (water ad libitum). Volunteers were asked to fast for 8 h before the initiation of the study and for at least 4 h after the intake of the ^14C-EC test drink (water ad libitum). Venous blood samples were taken using Vacutainer collection tubes, containing potassium EDTA at 0 h (just prior to ^14C-EC ingestion), and at 0.25, 0.5, 1, 1.5, 2, 2.5, 3, 4, 6, 8, 10, 12, 16, 24, 36, and 48 h after test drink consumption. Plasma was obtained by whole blood centrifugation at 2000 × g for 15 min at 5 °C, separated into aliquots and stored at −80 °C until analysis. All urine and feces from the time just prior to the consumption of the test drink were collected at different time intervals for radioactivity and metabolite profiling. Clinical parameters and laboratory evaluations of participants were assessed at screening, on study day –1, and after completing the study, as detailed in Supplementary Methods.
The 50-mL drink consisted of an aqueous solution of ^14C-EC (specific activity 14.5 μCi μmol^−1) and delivered 60 mg (207 μmol) of EC and 300 μCi (660 × 10^6 dpm) of radioactivity. The drink was prepared one day before consumption to verify correctness of composition and stability. Volunteers received the ^14C-EC test drink (50 mL), followed by 3 × 50 mL of water that was used to rinse the test drink container, and 40 mL of water. The radioactivity remaining in the test drink containers was measured, and the residual radioactivity recovered from each container was subtracted from the amount administered to the corresponding volunteer.
Radioactivity in aliquots of plasma and urine was measured by liquid scintillation counting. Blood and feces were dried and oxidized by combustion using a 307 Sample Oxidizer (Packard Instrument Company, Meriden, NH) before being analyzed by liquid scintillation counting.

[2] = Metabolite profiling and pharmacokinetics in plasma (targeted HPLC-MS2); settings: human, oral 60 mg 14C-EC
Protocol: as §1
Samples were processed as described previously[18] and analyzed by HPLC-MS^2 in conjunction with an on-line HPLC-radioactivity monitor as described in SI Materials and Methods. Identification of metabolites involved comparing the retention time with authentic standards and MS^2 fragmentation patterns (Supplementary Methods). Quantification of metabolites in urine was based on HPLC radioactivity peak area (limit of quantification: 10^3 dpm). Due to the low levels of radioactivity, quantification in plasma was based on targeted HPLC-MS^2 using standard curves obtained with authentic standards (Supplementary Methods).
Data are expressed as mean values ± standard error, or as otherwise specified. Pharmacokinetic parameters were calculated using non-compartmental analysis with WinNonlin (Pharsight Corporation, Version 5.2).
5-20% acetonitrile in 0.1 % formic acid. Supplementary Table S2 provides details of HPLC retention times and the m/z values that were monitored.
Supplementary Table S2. Detection of (−)-epicatechin metabolites. HPLC retention times and selected reaction monitoring ions used for the HPLC-MS analysis of (−)-epicatechin metabolites in plasma. […]
Structurally related (-)-epicatechin metabolites in humans: assessment using de novo chemically synthesized authentic standards. Free Radic Biol Med 52, 1403- […]
3 Borges, G. et al. Bioavailability of multiple components following acute ingestion of a polyphenol-rich juice drink. Mol Nutr Food Res 54 Suppl 2, S268-277, […]
4 Stalmach, A. et al. Absorption, metabolism, and excretion of green tea flavan-3-ols in humans with an ileostomy. Mol Nutr Food Res 54, 323-334,

[3] = Adverse events and clinical/laboratory evaluation in the 14C-EC ADME study; settings: human
Protocol: as §1, with “Methods. […]” for “Methods.”

Which “Accumulated radioactivity voided in feces, of ingested 14C-EC” value ([1]; oral 60 mg 14C-EC) does the source give for `Oc1cc(O)c2c(c1)O[C@H](c1ccc(O)c(O)c1)[C@H](O)C2` [^14C-EC, [2-^14C](−)-epicatechin] here?
Its value is 12 ± 3%.

What about the “Radioactivity in urine and feces combined, of intake” value ([1]; oral 60 mg 14C-EC) of the same compound?
Its value is 95 ± 1%.

And the “Radioactivity not recovered in the collected samples” value ([1]; oral 60 mg 14C-EC)?
The value was 5 ± 1%.

What about the “Accumulated radioactivity eliminated in urine, of amount ingested” value ([1]; oral 60 mg 14C-EC, liquid scintillation counting, 0–48 h) of the same compound?
Its value is 82 ± 5%.

And the “Ingested EC absorbed” value ([1]; oral 60 mg, n=8)?
The value was 82 ± 5%.

And the “Levels of unmetabolized EC in plasma and urine” value [2]?
Its value is “below the limits of detection”.

What about the “Severity of reported adverse events” value [3] of the same compound?
Its value is “all reported adverse events were mild in severity”.

What about the “Number of adverse events reported” value ([3]; reported by 3 different participants, none related to study treatment) of the same compound?
Its value is 6.

What about the “Adverse events related to the study treatment” value ([3]; single oral 60 mg, 300 μCi) of the same compound?
Its value is “No adverse events related to the study treatment were recorded”.

What about the “Clinical changes in laboratory evaluations, physical examinations and 12-lead electrocardiograms” value ([3]; single oral 60 mg, 300 μCi) of the same compound?
Its value is “no significant clinical changes”.
